Assays:
[1] = biological target: T1, A1 adenosine receptor (Homo sapiens, UniProt P30542); assay: Radioligand binding affinity, A1 adenosine receptor ([3H]CCPA, CHO cells); set-up: % hA1: dose or concentration left out as unconfirmed; conditions: for % hA1: percentage inhibition of specific binding of [3H]CCPA; for Ki: nM ± SEM, read-out: Ki(nM) hA1
T1 construct: expressed in transfected cells; host or cells: CHO cells (ATCC No. CCL-61)
T1 sequence (P30542 1-326): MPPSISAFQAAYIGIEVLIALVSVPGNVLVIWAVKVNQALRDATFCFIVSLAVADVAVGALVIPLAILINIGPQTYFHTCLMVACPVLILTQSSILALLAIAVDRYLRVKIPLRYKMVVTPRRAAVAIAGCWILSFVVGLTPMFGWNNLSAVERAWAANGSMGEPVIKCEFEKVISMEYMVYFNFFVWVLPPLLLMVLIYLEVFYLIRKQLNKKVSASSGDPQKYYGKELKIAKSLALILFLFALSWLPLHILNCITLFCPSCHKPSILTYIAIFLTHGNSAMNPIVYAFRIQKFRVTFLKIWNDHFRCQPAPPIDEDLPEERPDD
Method: (§1) CHO cells (ATCC No. CCL-61), in which A1 and A3 adenosine receptors were expressed, were cultured in F-12 media (Gibco, U.S.A.) supplemented with 10% fetal bovine serum (FBS) and penicillin/streptomycin (100 units/ml and 100 g/ml), at 37° C. in a 5% CO2 atmosphere. […] Incubation for 1 hr in a 37° C. incubator was followed by rapid filtration in a vacuum using a cell collector (TOMTEC, U.S.A.). Subsequently, the test tubes were washed three times with 3 ml of the buffer before radioactivity was measured using a γ-counter. […] Ki for binding affinity was determined by subtracting the non-specific binding value from the total binding value. On the basis of the specific binding values, the samples were analyzed for binding affinity to various adenosine receptors.

[2] = biological target: T2, A2A adenosine receptor (Homo sapiens, UniProt P29274); assay: Radioligand binding affinity, A2A adenosine receptor ([3H]CGS-21680, HEK 293 cell); conditions: for % hA2A: percentage inhibition of specific binding of 10 µM; for Ki: nM ± SEM, read-out: Ki(nM) hA2A
T2 construct: expressed in transfected cells; host or cells: HEK 293 cell
T2 sequence (P29274 whole entry): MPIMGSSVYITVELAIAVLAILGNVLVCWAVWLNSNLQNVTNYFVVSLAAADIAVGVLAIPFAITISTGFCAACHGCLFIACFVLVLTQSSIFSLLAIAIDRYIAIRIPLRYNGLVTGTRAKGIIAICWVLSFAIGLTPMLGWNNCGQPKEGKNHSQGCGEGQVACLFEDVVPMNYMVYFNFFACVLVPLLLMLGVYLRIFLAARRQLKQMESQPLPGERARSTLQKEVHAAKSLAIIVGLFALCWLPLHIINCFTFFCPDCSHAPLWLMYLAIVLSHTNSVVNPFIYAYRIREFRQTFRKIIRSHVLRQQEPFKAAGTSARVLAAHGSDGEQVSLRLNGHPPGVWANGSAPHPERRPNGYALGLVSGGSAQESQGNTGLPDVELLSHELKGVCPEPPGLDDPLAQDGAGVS
Method: The adenosine derivatives of the present invention were assayed for binding affinity and selectivity for A1, A2A and A3 receptors among human adenosine receptor (hAR) as follows.
Adenosine deaminase was added alone or in combination with a radioactive ligand when cerebral meninges were incubated at 30° C. for 30 min. Each of the compounds synthesized in the examples was measured for IC50 at least 6 different concentrations, and the measurements were analyzed using SigmaPlot software to determine Ki values.

[3] = biological target: T3, A3 adenosine receptor (Homo sapiens, UniProt P0DMS8); assay: Radioligand binding affinity, A3 adenosine receptor ([125I]AB-MECA, CHO cells); set-up: % hA3: dose or concentration left out as unconfirmed; conditions: for Ki: nM ± SEM, read-out: Ki(nM) hA3
T3 construct: expressed in transfected cells; host or cells: CHO cells (ATCC No. CCL-61)
T3 sequence (P0DMS8 1-318): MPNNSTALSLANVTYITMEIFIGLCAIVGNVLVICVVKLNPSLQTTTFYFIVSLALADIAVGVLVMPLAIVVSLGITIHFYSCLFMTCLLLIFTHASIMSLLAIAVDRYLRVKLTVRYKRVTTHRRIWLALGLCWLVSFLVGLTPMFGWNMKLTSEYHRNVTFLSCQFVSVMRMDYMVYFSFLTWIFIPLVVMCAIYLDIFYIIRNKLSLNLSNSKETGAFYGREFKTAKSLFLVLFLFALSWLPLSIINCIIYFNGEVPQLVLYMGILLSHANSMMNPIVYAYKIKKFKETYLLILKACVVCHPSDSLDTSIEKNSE
Method: as §1

[4] = system: TPA-induced inflammation of the mouse ear; assay: Anti-inflammatory activity, TPA-induced mouse ear inflammation; format: in vivo, ICR mice; conditions: for anti-inflammatory activity: 0.5% in acetone, 20 µl, FIG. 11 (Exp. Ex. 12)
Method: The adenosine derivatives of the present invention were examined for anti-inflammatory activity in the following animal test. Seven-week-old male ICR mice were treated with TPA (12-O-tetradecanoylphorbol-13-acetate, 20 µl) in the right ear. […] Hydrocortisone was used at the same concentration as a control.
6 hrs after treatment with TPA, the mice were secondarily treated with the adenosine derivatives of the present invention. 24 hrs after TPA treatment, test animals were euthanized using a cervical dislocation method. Samples were obtained from the right ear using a 6 mm diameter punch. The activity was observed by measuring the ear sample using a microbalance. Percentages of inhibition were calculated using the following Equation 1. The compositions and amounts used in these experiments are summarized in Tables 14 to 17 and the anti-inflammatory activities thereof are shown in FIGS. 10 to 13. % Inhibition = (1−Rt.Ear(Test−Nontreated))/(Rt.Ear(TPAonly−Nontreated)) [formula]

[5] = 0.5% in a mixture of distilled water and acetone (1:4), FIG. 12 (Exp. Ex. 13)
[6] = 0.5% in a mixture of DMSO and acetone (1:9), FIG. 13 (Exp. Ex. 14)

Row | SMILES | % hA1 [1] [%] | % hA2A [2] [%] | Ki [3] [nM] | anti-inflammatory activity [4] | Ki [2] [nM] | percentages of inflammation inhibition [4, 5] [%] | % hA3 ([3]; percentage inhibition of specific binding) [%] | Ki [1] [nM] | percentages of inflammation inhibition [4, 6] [%]
1 | O[C@@H]1[C@H](O)CS[C@H]1n1cnc2c(NCc3cccc(F)c3)nc(Cl)nc21 [Example 1, (2R,3R,4S)-2-(2-chloro-6-(3-fluorobenzylamino)-9H-purin-9-yl)tetrahydrothiophen-3,4-diol] | 19.8 | 47.6 | 7.4 ± 1.3 | increased | – | – | – | – | –
2 | O[C@@H]1[C@H](O)CS[C@H]1n1cnc2c(NCc3cccc(Br)c3)nc(Cl)nc21 [Example 3, (2R,3R,4S)-2-(6-(3-bromobenzylamino)-2-chloro-9H-purin-9-yl)tetrahydrothiophen-3,4-diol] | 34.2 | 18.4 | 8.99 ± 5.17 | – | – | – | – | – | –
3 | O[C@@H]1[C@H](O)CS[C@H]1n1cnc2c(NCc3ccccc3Cl)nc(Cl)nc21 [Example 5, (2R,3R,4S)-2-(2-chloro-6-(2-chlorobenzylamino)-9H-purin-9-yl)tetrahydrothiophen-3,4-diol] | 12.8 | – | 25.8 ± 6.3 | – | 1600 ± 135 | 17 | – | – | –
4 | COc1ccc(Cl)cc1CNc1nc(Cl)nc2c1ncn2[C@@H]1SC[C@@H](O)[C@H]1O [Example 6, (2R,3R,4S)-2-(2-chloro-6-(5-chloro-2-methoxybenzylamino)-9H-purin-9-yl)tetrahydrothiophen-3,4-diol] | 23.8 | – | 12.7 ± 3.7 | increased | 4020 ± 1750 | 34 | – | – | –
5 | COc1ccccc1CNc1nc(Cl)nc2c1ncn2[C@@H]1SC[C@@H](O)[C@H]1O [Example 7, (2R,3R,4S)-2-(2-chloro-6-(2-methoxybenzylamino)-9H-purin-9-yl)tetrahydrothiophen-3,4-diol] | 9.4 | 17.5 | 19.9 ± 7.1 | – | – | 53 | – | – | –
6 | O[C@@H]1[C@H](O)CS[C@H]1n1cnc2c(NCc3cccc4ccccc34)nc(Cl)nc21 [Example 8, (2R,3R,4S)-2-(2-chloro-6-(naphthalen-1-ylmethylamino)-9H-purin-9-yl)tetrahydrothiophen-3,4-diol] | 22.0 | -8.3 | 24.8 ± 8.1 | – | – | – | – | – | –
7 | O=C(O)c1cccc(CNc2nc(Cl)nc3c2ncn3[C@@H]2SC[C@@H](O)[C@H]2O)c1 [Example 9, 3-((2-chloro-9-((2R,3R,4S)-3,4-dihydroxytetrahydrothiophen-2-yl)-9H-purine-6-ylamino)methyl)benzoic acid] | 13.1 | -0.18 | – | – | – | – | 41.5 | – | –
8 | CNc1nc(Cl)nc2c1ncn2[C@@H]1SC[C@H](O)[C@@H]1O [Example 10, 2-(2-chloro-6-methylamino-purin-9-yl)tetrahydrothiophen-3,4-diol] | 55.4 ± 1.8 | 45.0 ± 1.4 | 3.69 ± 0.25 | – | – | – | – | – | –
9 | O[C@@H]1[C@H](O)CS[C@H]1n1cnc2c(NCc3cccc(F)c3)ncnc21 [Example 11, (2R,3R,4S)-2-(6-(3-fluorobenzylamino)-9H-purin-9-yl)tetrahydrothiophen-3,4-diol] | – | – | 7.3 ± 0.6 | – | 1260 ± 330 | – | – | 1430 ± 420 | –
10 | O[C@@H]1[C@H](O)CS[C@H]1n1cnc2c(NCc3cccc(Cl)c3)ncnc21 [Example 12, (2R,3R,4S)-2-(6-(3-chlorobenzylamino)-9H-purin-9-yl)tetrahydrothiophen-3,4-diol] | – | – | 1.5 ± 0.4 | – | 440 ± 110 | – | – | 860 ± 210 | –
11 | O[C@@H]1[C@H](O)CS[C@H]1n1cnc2c(NCc3cccc(Br)c3)ncnc21 [Example 13, (2R,3R,4S)-2-(6-(3-bromobenzylamino)-9H-purin-9-yl)tetrahydrothiophen-3,4-diol] | – | – | 6.8 ± 3.4 | – | 420 ± 32 | – | – | 790 ± 190 | –
12 | O[C@@H]1[C@H](O)CO[C@H]1n1cnc2c(NCc3cccc(Br)c3)nc(Cl)nc21 [Example 15, (2R,3R,4R)-2-(6-(3-bromobenzylamino)-2-chloro-9H-purin-9-yl)tetrahydrofuran-3,4-diol] | 39.8 | 22.8 | 13 ± 6.9 | – | – | – | – | – | 59
13 | O[C@@H]1[C@H](O)CO[C@H]1n1cnc2c(NCc3cccc(I)c3)nc(Cl)nc21 [Example 16, (2R,3R,4R)-2-(2-chloro-6-(3-iodobenzylamino)-9H-purin-9-yl)tetrahydrofuran-3,4-diol] | 37.7 | 28.6 | 42.9 ± 8.9 | – | – | – | – | – | 79

From patent EP4186514A1, “PHARMACEUTICAL COMPOSITION FOR PREVENTING OR TREATING CHOLANGITIS OR LIVER DISEASE CAUSED BY CHOLANGITIS COMPRISING ADENOSINE DERIVATIVE” (Future Medicine Co., Ltd., priority 2021, dated 2023)
